target: Sigma non-opioid intracellular receptor 1 (Cavia porcellus, UniProt Q60492); experiment: Displacement of [3H](+)-pentazocine from sigma 1 receptor in guinea pig brain membrane
Sequence (Q60492 whole entry): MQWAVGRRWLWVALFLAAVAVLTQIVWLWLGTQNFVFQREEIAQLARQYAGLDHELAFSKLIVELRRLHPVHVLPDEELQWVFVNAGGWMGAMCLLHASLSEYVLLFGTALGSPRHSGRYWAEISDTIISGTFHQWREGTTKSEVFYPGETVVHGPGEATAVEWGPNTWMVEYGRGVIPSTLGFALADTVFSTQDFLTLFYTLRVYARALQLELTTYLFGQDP

`OCC[C@H]1Cc2ccccc2C2(CCN(CCCc3ccccc3)CC2)O1` [(R)-2-(1'-(3-phenylpropyl)spiro[isochroman-1,4'-piperidine]-3-yl)ethanol] and `OCC[C@H]1Cc2ccccc2C2(CCN(Cc3ccccc3)CC2)O1` [(R)-2-(1'-benzylspiro[isochroman-1,4'-piperidine]-3-yl)ethanol] are within 1.5-fold of each other in Ki: 68 nM for the first, 48 nM for the second.

`OCC[C@H]1Cc2ccccc2C2(CCN(CC3CCCCC3)CC2)O1` [(R)-2-(1'-(cyclohexylmethyl)spiro[isochroman-1,4'-piperidine]-3-yl)ethanol] and `OCC[C@@H]1Cc2ccccc2C2(CCN(Cc3ccccc3)CC2)O1` [(S)-2-(1'-benzylspiro[isochroman-1,4'-piperidine]-3-yl)ethanol] are within 1.5-fold of each other in Ki: 9 nM for the first, 10 nM for the second.
